According to patent publication US20190211044A1, “Adjuvant Chemicals that Prevent Drug Tolerance and Persister Formation by Bacteria” (LifeUnit Inc., priority 2018, published 2019):

Tests used:
[1] = test system: abx-promoted swarming P. aeruginosa; assay: c-di-GMP in abx-promoted swarming P. aeruginosa, by LC-MS (Example 8); assay type: cell-based
Procedure: 3,5-DiMeDβM and 3,5-DiMeDβC was tested by Liquid Chromatography-Mass Spectrometry (LC-MS) to show the effect on c-di-GMP on abx-promoted swarming P. aeruginosa.

[2] = test system: phosphodiesterase activity in biofilms of PA strains; assay type: cell-based; settings: bacteria incubated with agent 24-h to form biofilm, lysed, bis-NPP
PAO1 in residual biofilm [3] = assay: cdG in PAO1 in residual biofilm after dispersal, by reporter strains, GFP/CFP fluorescence (Example 5); assay type: cell-based, Pseudomonas aeruginosa; settings: 40 μM for native and 85 μM for abx-promoted biofilm, dispersed 5-h at 37° C., M9 medium
PAO1 in residual biofilm [4] = assay: cdG in PAO1 in residual biofilm after dispersal, by LC-MS (Example 4); assay type: cell-based, Pseudomonas aeruginosa; settings: PAO1 residual biofilm dispersed by agent, versus original native or abx-promoted biofilm
Procedure: PAO1 in residual biofilm dispersed by 3,5-[…] and 3,5-[…] was tested by Liquid Chromatography-Mass Spectrometry (LC-MS).

PAO1 in residual biofilm [5] = assay: cdG by reporter strains versus naturally dispersed PAO1 (Example 7); assay type: cell-based, Pseudomonas aeruginosa; settings: PAO1 in residual biofilm dispersed by agent
PA PAO1 biofilm = assay: Inhibition of PA PAO1 biofilm (FIG. 1); assay type: cell-based, Pseudomonas aeruginosa; settings: compounds at 60 μM

Substance | c-di-GMP on abx-promoted swarming P. aeruginosa (LC-MS) [1] | phosphodiesterase activity [2] | cdG level in residual biofilm (reporter strains, GFP/CFP) (PAO1 in residual biofilm [3]) | cdG level in residual biofilm (LC-MS) (PAO1 in residual biofilm [4]) | cdG level versus naturally dispersed PAO1 (reporter strains) (PAO1 in residual biofilm [5]) | biofilm inhibition (PA PAO1 biofilm)
3,5-dimethyl-C12-βC [3,5-DiMeDβC] | increases c-di-GMP | increase phosphodiesterase activity | lower cdG than in original native or abx-promoted biofilm | lower cdG than in original native or abx-promoted biofilm | lower cdG than in naturally dispersed PAO1 | –
3,5-dimethyl-C12-βM [3,5-DiMeDβM] | increases c-di-GMP | increase phosphodiesterase activity | lower cdG than in original native or abx-promoted biofilm | lower cdG than in original native or abx-promoted biofilm | lower cdG than in naturally dispersed PAO1 | > 95%
